Experimental data: patent US20050075375A1 (priority 2003, published 2005)
pEC50: −log10 of the molar value. Read-outs that look alike come from different tables or passages of the source.

Tested on: monocistronic NK5.1 HCV replicon in Huh7 cells
Experiment: HCV replicon assay, monocistronic replicon cell line
Assay type: cell-based, hepatitis C virus
Settings: read-out: Mono EC50 Median
Method in brief: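 EC50 derives from the HCV RNA/GAPDH RNA ratio by one-step TaqMan RT-PCR, relative to DMSO-only wells. Compounds (six half-log concentrations, 0.6% DMSO) were incubated 3 days at 37 °C with NK5.1 monocistronic replicon Huh7 cells plated a day earlier.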

[1] = Hepatitis C virus, Huh-7, monocistronic NK5.1 HCV replicon in Huh7 cells, median value
[2] = Hepatitis C virus, Huh-7, 72 h, Table 1, monocistronic replicon in Huh7 cells, 3 days incubation, HCV RNA/GAPDH RNA by TaqMan RT-PCR
[3] = Hepatitis C virus, Huh-7, 72 h, table T3 (compounds 471-640), monocistronic replicon in Huh7 cells, 3 days incubation, HCV RNA/GAPDH RNA by TaqMan RT-PCR

SMILES | pEC50 [1] | pEC50 [2] | further results
COc1ccccc1-c1nnc(-c2ccccc2)o1 [Compound 325, 2-(2-Methoxy-phenyl)-5-phenyl-[1,3,4]oxadiazole] | < 4.49 | – | –
O=C(O)c1cc(-c2ccc3ccccc3c2)n(-c2ncccc2C(F)(F)F)n1 [Compound 79, 5-Naphthalen-2-yl-1-(3-trifluoromethyl-pyridin-2-yl)-1H-pyrazole-3-carboxylic acid] | – | < 4.49 | –
COc1ccccc1-c1nnc(-c2ccccn2)o1 [Compound 344, 2-[5-(2-Methoxy-phenyl)-[1,3,4]oxadiazol-2-yl]-pyridine] | < 4.49 | – | –
CC1(C)CCN2CCC(C)(C)c3c(O)c(-c4nc(-c5cnccc5C(F)(F)F)n[nH]4)cc1c32 [Compound 425, 1,1,7,7-Tetramethyl-9-[5-(4-trifluoromethyl-pyridin-3-yl)-2H-[1,2,4]triazol-3-yl]-2,3,6,7-tetrahydro-1H,5H-pyrido[3,2,1-ij]quinolin-8-ol] | 5.54 | – | –
Cc1cccc(-c2n[nH]c(-c3ccccc3Cl)n2)n1 [Compound 466, 2-[5-(2-Chloro-phenyl)-1H-[1,2,4]triazol-3-yl]-6-methyl-pyridine] | < 4.49 | – | –
COc1cccc(-c2nc(-c3ncccc3C(F)(F)F)n[nH]2)c1 [Compound 547, 2-[5-(3-Methoxy-phenyl)-1H-[1,2,4]triazol-3-yl]-3-trifluoromethyl-pyridine] | – | – | pEC50 [3]: < 4.72
Cc1cccnc1-c1noc(-c2cc(N)ccc2O)n1 [Compound 270, 4-Amino-2-[3-(3-methyl-pyridin-2-yl)-[1,2,4]oxadiazol-5-yl]-phenol] | 4.56 | – | –
O=[N+]([O-])c1ccc(O)c(-c2nc(-c3ncccc3[N+](=O)[O-])no2)c1 [Compound 158, 4-Nitro-2-[3-(3-nitro-pyridin-2-yl)-[1,2,4]oxadiazol-5-yl]-phenol] | – | – | pEC50 (Hepatitis C virus, Huh-7, 72 h): 4.96
O=[N+]([O-])c1ccc(-c2nc(-c3ncccc3[N+](=O)[O-])no2)c(Cl)c1 [Compound 167, 2-[5-(2-Chloro-4-nitro-phenyl)-[1,2,4]oxadiazol-3-yl]-3-nitro-pyridine] | – | – | pEC50 (Hepatitis C virus, Huh-7, 72 h): 4.92
Oc1ccc(O)c(-c2nc(-c3ccccn3)no2)c1 [Compound 150, 2-(3-Pyridin-2-yl-[1,2,4]oxadiazol-5-yl)-benzene-1,4-diol] | – | 4.80 | –
Oc1cc(OCc2ccccc2)ccc1-c1nc(-c2ncccc2C(F)(F)F)n[nH]1 [Compound 537, 5-Benzyloxy-2-[5-(3-trifluoromethyl-pyridin-2-yl)-2H-[1,2,4]triazol-3-yl]-phenol] | – | – | pEC50 [3]: < 4.72
COc1ccc(-c2nc(-c3cnccc3C(F)(F)F)n[nH]2)c(O)c1 [Compound 421, 5-Methoxy-2-[5-(4-trifluoromethyl-pyridin-3-yl)-2H-[1,2,4]triazol-3-yl]-phenol] | < 4.72 | – | –
COc1ccc(O)c(-c2nc(-c3ncccc3C)no2)c1 [Compound 185, 4-Methoxy-2-[3-(3-methyl-pyridin-2-yl)-[1,2,4]oxadiazol-5-yl]-phenol] | – | 5.80 | –
Cc1ccc(O)c(-c2nc(-c3ccc(NC(=O)OC(C)(C)C)cn3)no2)c1 [Compound 245, {6-[5-(2-Hydroxy-5-methyl-phenyl)-[1,2,4]oxadiazol-3-yl]-pyridin-3-yl}-carbamic acid tert-butyl ester] | < 4.49 | < 4.49 | –
Oc1ccc(Cl)cc1-c1nc(-c2ncccn2)n[nH]1 [Compound 563, 4-Chloro-2-(5-pyrimidin-2-yl-2H-[1,2,4]triazol-3-yl)-phenol] | – | – | pEC50 [3]: 5.19
Oc1ccccc1-c1nc(-c2ccccn2)n[nH]1 [Compound 361, 2-(5-pyridin-2-yl-2H-[1,2,4]triazol-3-yl)-phenol] | < 4.72 | – | –
CCOc1ccc(O)c(-c2nc(-c3ncccc3C)no2)c1 [Compound 271, 4-Ethoxy-2-[3-(3-methyl-pyridin-2-yl)-[1,2,4]oxadiazol-5-yl]-phenol] | 6.21 | – | –
COc1cccc(-c2nc(-c3ncccc3C(F)(F)F)no2)c1O [Compound 207, 2-Methoxy-6-[3-(3-trifluoromethyl-pyridin-2-yl)-[1,2,4]oxadiazol-5-yl]-phenol] | – | 4.77 | –
Cc1ccccc1-c1nnc(-c2ccccc2C(F)(F)F)o1 [Compound 314, 2-o-Tolyl-5-(2-trifluoromethyl-phenyl)-[1,3,4]oxadiazole] | 4.70 | – | –
COc1ccc(O)c(-c2cc(-c3ncccc3C(F)(F)F)on2)c1 [Compound 129, 4-Methoxy-2-[5-(3-trifluoromethyl-pyridin-2-yl)-isoxazol-3-yl]-phenol] | – | 5.42 | –
FC(F)(F)c1cccnc1-n1ccc(-c2cc(Br)ccc2OCc2ccccc2)n1 [Compound 108, 2-[3-(2-Benzyloxy-5-bromo-phenyl)-pyrazol-1-yl]-3-trifluoromethyl-pyridine] | – | < 4.49 | –
COc1ccc(F)c(-c2nc(-c3ncccc3Br)n[nH]2)c1 [Compound 501, 3-Bromo-2-[5-(2-Fluoro-5-methoxy-phenyl)-1H-[1,2,4]triazol-3-yl]-pyridine] | – | – | pEC50 [3]: < 4.49
Cc1cccnc1-c1noc(-c2cc(Cl)cc(Br)c2O)n1 [Compound 279, 2-Bromo-4-chloro-6-[3-(3-methyl-pyridin-2-yl)-[1,2,4]oxadiazol-5-yl]-phenol] | 5.48 | – | –

SMILES | pEC50 [1] | pEC50 [2] | further results
Cc1cccc(-c2n[nH]c(-c3c(F)cccc3Cl)n2)n1 [Compound 469, 2-[5-(2-Fluoro-6-chloro-phenyl)-1H-[1,2,4]triazol-3-yl]-6-methyl-pyridine] | < 4.49 | – | –
COc1ccc(-c2nc(-c3ncccc3Br)n[nH]2)c(O)c1 [Compound 494, 2-[5-(3-Bromo-pyridin-2-yl)-2H-[1,2,4]triazol-3-yl]-5-Methoxy-phenol] | – | – | pEC50 [3]: < 4.49
Oc1c(Cl)cc(Cl)cc1-c1nc(-c2ccccn2)n[nH]1 [Compound 619, 4,6-Dichloro-2-(5-pyridin-2-yl-2H-[1,2,4]triazol-3-yl)-phenol] | – | – | pEC50 [3]: 6.52
Cc1cccnc1-c1noc(-c2ccc(OCc3ccccc3)cc2O)n1 [Compound 274, 5-Benzyloxy-2-[3-(3-methyl-pyridin-2-yl)-[1,2,4]oxadiazol-5-yl]-phenol] | 5.74 | – | –
Cc1ccc(O)c(-c2nc(-c3ncccc3C)no2)c1 [Compound 192, 4-Methyl-2-[3-(3-methyl-pyridin-2-yl)-[1,2,4]oxadiazol-5-yl]-phenol] | – | < 4.49 | –
COc1cc(Br)cc(-c2nc(-c3ncccc3C)no2)c1O [Compound 242, 4-Bromo-2-methoxy-6-[3-(3-methyl-pyridin-2-yl)-[1,2,4]oxadiazol-5-yl]-phenol] | 5.08 | 5.08 | –
Cc1cccnc1-c1noc(-c2cc([N+](=O)[O-])ccc2Cl)n1 [Compound 191, 2-[5-(2-Chloro-5-nitro-phenyl)-[1,2,4]oxadiazol-3-yl]-3-methyl-pyridine] | – | 5.70 | –
COc1ccc(-c2nc(-c3ccc(N)cn3)no2)c(O)c1 [Compound 253] | < 4.49 | – | –
CCOC(=O)c1cc(-c2ccc3ccccc3c2)n(-c2ncccc2[N+](=O)[O-])n1 [Compound 69] | – | 4.62 | –
COc1ccc(-c2nc(-c3ncccc3C)no2)c(O)c1 [Compound 175, 5-Methoxy-2-[3-(3-methyl-pyridin-2-yl)-[1,2,4]oxadiazol-5-yl]-phenol] | – | 6.30 | –
COc1ccc(OC)c(-c2nc(-c3ncccc3[N+](=O)[O-])no2)c1 [Compound 159] | – | 4.80 | –
FC(F)(F)c1ccc(-c2n[nH]c(-c3cccc(Br)c3)n2)nc1 [Compound 526, 2-[5-(3-Bromo-phenyl)-1H-[1,2,4]triazol-3-yl]-5-trifluoromethyl-pyridine] | – | – | pEC50 [3]: < 4.72
Cc1cccnc1-c1noc(-c2cc(F)ccc2O)n1 [Compound 187] | – | – | pEC50 (Table 1, monocistronic replicon in Huh7 cells, 3 days incubation, HCV RNA/GAPDH RNA by TaqMan RT-PCR): 5.19
Oc1ccc2ccccc2c1-c1nnc(-c2ccccc2F)o1 [Compound 305, 1-[5-(2-Fluoro-phenyl)-[1,3,4]oxadiazol-2-yl]-naphthalen-2-ol] | < 4.49 | – | –
Cc1cc(-c2c(O)ccc3ccccc23)nn1-c1ccc(C(C)C)cc1 [Compound 13, 1-[1-(4-Isopropyl-phenyl)-5-methyl-1H-pyrazol-3-yl]-naphthalen-2-ol] | – | < 4.72 | –
O=[N+]([O-])c1ccc(O)c(-c2nc(-c3cnccn3)n[nH]2)c1 [Compound 576, 4-Nitro-2-(5-pyrazin-2-yl-2H-[1,2,4]triazol-3-yl)-phenol] | – | – | pEC50 [3]: 4.80
Cc1cccc(-c2n[nH]c(-c3c(Cl)cccc3Cl)n2)n1 [Compound 467, 2-[5-(2,6-Dichloro-phenyl)-1H-[1,2,4]triazol-3-yl]-6-methyl-pyridine] | < 4.49 | – | –
COc1cccc(-c2nc(-c3ccc(C(F)(F)F)cn3)n[nH]2)c1O [Compound 519, 6-Methoxy-2-[5-(5-trifluoromethyl-pyridin-2-yl)-2H-[1,2,4]triazol-3-yl]-phenol] | – | – | pEC50 [3]: < 4.72
Cc1cc(-c2c(O)ccc3ccccc23)nn1-c1ncc(C(F)(F)F)cc1Cl [Compound 20, 1-[1-(3-Chloro-5-trifluoromethyl-pyridin-2-yl)-5-methyl-1H-pyrazol-3-yl]-naphthalen-2-ol] | – | 4.89 | –
Oc1ccccc1-c1nnc(-c2cccs2)o1 [Compound 324, 2-(5-Thiophen-2-yl-[1,3,4]oxadiazol-2-yl)-phenol] | < 4.49 | – | –
O=C(O)c1cc(-c2ccc3ccccc3c2)n(-c2ncccc2[N+](=O)[O-])n1 [Compound 75] | – | < 4.49 | –
CCOc1cccc(-c2nc(-c3ncccc3C)no2)c1O [Compound 268, 2-Ethoxy-6-[3-(3-methyl-pyridin-2-yl)-[1,2,4]oxadiazol-5-yl]-phenol] | 4.54 | – | –
Cc1cccnc1-c1noc(-c2ccccc2O)n1 [Compound 188, 2-[3-(3-Methyl-pyridin-2-yl)-[1,2,4]oxadiazol-5-yl]-phenol] | – | < 4.49 | –
